Measured values published in patent US20240199640A1, “NEGATIVE ALLOSTERIC MODULATORS OF METABOTROPIC GLUTAMATE RECEPTOR 2” (priority 2021, published 2024).
Like-named read-outs stand apart in the source and are kept apart here.

Columns and labels:
Helpless (H) mice = conditions: cited from earlier work; for activity in the tail suspension test: Helpless (H) mice
[1] = conditioned fear stress; cited from earlier work
mouse = conditions: normal animals; cited from earlier work
[2] = test system: central mGlu2 and mGlu3 receptors; conditions: in vivo; cited from earlier work
[3] = test system: Aβ-induced neurodegeneration; conditions: cited from earlier work
mice = conditions: treated mice; cited from earlier work
C57Bl6/J mice = conditions: cited from earlier work
rat = conditions: normal animals; cited from earlier work
human mGlu3 = molecular target: T1, human mGlu3 (Homo sapiens, UniProt Q14832); assay: mGlu GIRK cell-based thallium flux assay, human mGlu3; conditions: HEK-293 cells co-expressing human mGlu3 and GIRK; EC80 glutamate; Tl flux
T1 construct: expressed in transfected cells; host or cells: HEK-293
Experimental: Human embryonic kidney (HEK-293) cell lines stably co-expressing human or rat mGlu2 and G protein-coupled inwardly rectifying potassium (GIRK) channels, or human mGlu3 and GIRK, were used for in vitro evaluation of compound activity in thallium flux assay using a fluorescent thallium indicator dye.
The day before the assay, GIRK cells co-expressing human mGlu3, human or rat mGlu2, as described above, were plated in black-walled, clear-bottomed, amine-coated 384-well plates at a density of 15,000 cells/20 μL/well in the assay medium (glutamine-depleted basal DMEM supplemented with 10% dialyzed FBS, 20 mM HEPES, 1 mM sodium pyruvate). Cells were incubated at 37° C. in the presence of 5% CO2. The next day, assay buffer (Hanks balanced salt solution, 20 mM HEPES, 4.16 mM sodium bicarbonate, pH 7.2) was prepared to dilute compounds and Thallos AM fluorescent dye solution. The 2× Thallos dye solution (final concentration 0.34 μM to the cells) was prepared by mixing the dye stock (2.97 mM in DMSO) to 1:1 with 10% pluronic acid before adding to the assay buffer. Cells were washed with assay buffer using a microplate washer to remove the medium, resulting in 20 μL of buffer remaining in each well. Immediately, 20 μL of 2× Thallos dye solution was added to cells, and incubated for one hour at 25° C. During the cell dye loading incubation period, a 10-point concentration serial dilution of compound was created from a 10 mM DMSO compound stock by performing a 1:3 serial dilution in DMSO using the Bravo liquid handler. The 2× compound plate was generated by transferring 0.24 μL of the diluted compound in each well to a daughter plate using an Echo acoustic liquid handler. This is further diluted in 40 μL assay buffer, resulting in a range from 30 μM to 1.5 nM final concentration in the assay. The agonist plate (5×) was prepared to include EC80 glutamate concentration (a concentration to elicit 80% of a maximally effective glutamate concentration) in thallium buffer (125 mM […], 1 mM magnesium sulfate, 1.8 mM calcium sulfate, 5 mM glucose, 10 mM HEPES, pH 7.2, 12.5 mM thallium sulfate).
(§1) After dye-loading, cell plates were washed with assay buffer to remove excess extracellular dye using a microplate washer, resulting in 20 μL of buffer remaining in each well. After a ten-minute equilibration period, cell, compound and agonist plates were loaded into a Hamamatsu μCell kinetic imaging plate reader equipped with liquid handler to monitor fluorescence changes at 480 nm excitation and 540 nm emission settings. Briefly, after collection of baseline fluorescence, 20 μL of compound was added and incubated for two minutes and twenty seconds. This is immediately followed by adding 10 μL of glutamate-thallium buffer to the wells containing compound. The fluorescent signal was monitored an additional 2.5 minutes after the glutamate addition. Multiple reference wells containing no compound received either no glutamate (for a baseline reference), […] glutamate, or ECmax glutamate (for normalization to maximum response). Fluorescence was measured throughout the experiment at a frequency of 1 measurement per every 2 seconds before the glutamate addition and a frequency of 1 measurement per every 1 second after the glutamate addition. Each compound concentration series occurred one time in each plate, and replicates from two or three plates were used in each experimental run. Thallium solutions were handled and disposed of according to guidelines from the Vanderbilt University Chemical Safety department.
Data were normalized using a static ratio function (F/F0) by dividing every fluorescent measurement by the initial fluorescent value for the corresponding well. The increase in signal resulting from the glutamate/thallium addition of the second add was measured by determining the slope from 3 seconds to 13 seconds after the addition. […]

human mGlu2 = molecular target: T2, human mGlu2 (Homo sapiens, UniProt Q14416); assay: mGlu GIRK cell-based thallium flux assay, human mGlu2; conditions: HEK-293 cells co-expressing human mGlu2 and GIRK; EC80 glutamate; Tl flux
T2 construct: expressed in transfected cells; host or cells: HEK-293
Experimental: The day before the assay, GIRK cells co-expressing human mGlu3, human or rat mGlu2, as described above, were plated in black-walled, clear-bottomed, amine-coated 384-well plates at a density of 15,000 cells/20 μL/well in the assay medium (glutamine-depleted basal DMEM supplemented with 10% dialyzed FBS, 20 mM HEPES, 1 mM sodium pyruvate). Cells were incubated at 37° C. in the presence of 5% CO2. […] Cells were washed with assay buffer using a microplate washer to remove the medium, resulting in 20 μL of buffer remaining in each well. Immediately, 20 μL of 2× Thallos dye solution was added to cells, and incubated for one hour at 25° C. During the cell dye loading incubation period, a 10-point concentration serial dilution of compound was created from a 10 mM DMSO compound stock by performing a 1:3 serial dilution in DMSO using the Bravo liquid handler. The 2× compound plate was generated by transferring 0.24 μL of the diluted compound in each well to a daughter plate using an Echo acoustic liquid handler.
as §1
Data were normalized using a static ratio function (F/F0) by dividing every fluorescent measurement by the initial fluorescent value for the corresponding well. The increase in signal resulting from the glutamate/thallium addition of the second add was measured by determining the slope from 3 seconds to 13 seconds after the addition. The average of all baseline slopes (no compound, no glutamate) was determined and this value was subtracted from all other slope values. The average of all ECmax slopes was determined and this value was used to normalize the baseline-corrected slopes to a percent max value (% Emax). The % Emax values for each compound series were plotted versus the log of the concentration and fit to a 4-parameter logistical equation with no fixed parameters.
Potency is reported as the IC50 resulting from the curve fit.

group II mGlu receptors = conditions: cited from earlier work

T1 sequence (Q14832 23-879): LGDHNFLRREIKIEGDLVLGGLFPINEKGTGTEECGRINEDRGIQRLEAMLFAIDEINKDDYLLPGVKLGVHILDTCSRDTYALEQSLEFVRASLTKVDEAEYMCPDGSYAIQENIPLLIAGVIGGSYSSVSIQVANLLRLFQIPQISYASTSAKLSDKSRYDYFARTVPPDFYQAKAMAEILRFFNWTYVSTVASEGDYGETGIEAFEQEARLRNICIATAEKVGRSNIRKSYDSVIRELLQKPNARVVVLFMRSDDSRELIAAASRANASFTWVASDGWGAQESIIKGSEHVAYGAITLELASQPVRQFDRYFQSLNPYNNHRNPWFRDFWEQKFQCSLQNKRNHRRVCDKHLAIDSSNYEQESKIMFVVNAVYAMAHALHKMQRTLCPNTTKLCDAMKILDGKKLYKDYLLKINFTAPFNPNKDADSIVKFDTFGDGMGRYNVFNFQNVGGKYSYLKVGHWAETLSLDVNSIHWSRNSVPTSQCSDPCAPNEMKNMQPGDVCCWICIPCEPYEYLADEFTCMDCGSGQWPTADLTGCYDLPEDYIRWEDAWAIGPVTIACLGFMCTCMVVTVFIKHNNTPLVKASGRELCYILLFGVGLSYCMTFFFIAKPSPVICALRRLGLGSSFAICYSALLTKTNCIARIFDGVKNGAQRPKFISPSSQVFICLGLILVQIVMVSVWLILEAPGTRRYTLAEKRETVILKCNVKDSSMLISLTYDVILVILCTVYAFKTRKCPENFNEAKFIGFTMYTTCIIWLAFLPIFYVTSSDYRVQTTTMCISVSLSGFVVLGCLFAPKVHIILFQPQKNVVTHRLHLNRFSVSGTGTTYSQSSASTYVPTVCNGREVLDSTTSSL
T2 sequence (Q14416 19-872): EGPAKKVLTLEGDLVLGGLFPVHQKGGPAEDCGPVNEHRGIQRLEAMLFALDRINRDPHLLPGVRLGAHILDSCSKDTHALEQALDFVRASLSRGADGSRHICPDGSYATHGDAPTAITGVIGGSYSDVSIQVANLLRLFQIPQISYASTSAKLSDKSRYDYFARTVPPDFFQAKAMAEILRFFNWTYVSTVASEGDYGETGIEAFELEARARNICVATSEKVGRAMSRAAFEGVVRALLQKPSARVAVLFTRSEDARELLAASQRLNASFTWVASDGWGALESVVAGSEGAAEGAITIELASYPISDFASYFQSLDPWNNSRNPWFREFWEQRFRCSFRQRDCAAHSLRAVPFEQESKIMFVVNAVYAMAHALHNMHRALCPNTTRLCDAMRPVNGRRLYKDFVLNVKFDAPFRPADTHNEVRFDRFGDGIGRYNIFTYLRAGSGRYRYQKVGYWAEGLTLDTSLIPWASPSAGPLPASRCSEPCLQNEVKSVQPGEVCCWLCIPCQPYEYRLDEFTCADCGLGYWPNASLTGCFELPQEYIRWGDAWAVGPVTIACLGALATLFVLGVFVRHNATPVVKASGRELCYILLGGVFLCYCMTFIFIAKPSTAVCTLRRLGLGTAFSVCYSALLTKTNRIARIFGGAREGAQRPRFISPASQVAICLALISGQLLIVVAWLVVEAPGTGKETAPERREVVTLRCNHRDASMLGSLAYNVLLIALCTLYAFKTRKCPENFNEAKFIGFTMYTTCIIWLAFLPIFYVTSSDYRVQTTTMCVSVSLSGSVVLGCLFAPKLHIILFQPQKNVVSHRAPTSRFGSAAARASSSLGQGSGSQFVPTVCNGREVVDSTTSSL

## CNCCC(Oc1ccc(C(F)(F)F)cc1)c1ccccc1 (stereo not shown) [fluoxetine]
Helpless (H) mice; chronic (21 days) treatment
  antidepressant effect in helpless mice: full antidepressant effect

## CN1C(=O)CN=C(c2ccccc2)c2cc(Cl)ccc21 [diazepam]
[1]
  freezing behavior: significantly decreased

## N[C@](CC1c2ccccc2Oc2ccccc21)(C(=O)O)[C@H]1C[C@@H]1C(=O)O [LY341495]
mouse
  Antidepressant-like effects in mouse tail-suspension test: Antidepressant-like effects
[2]
  hypolocomotor effect of mGlu2/3 agonist (LY379268): achieved the same result
[3]
  Aβ-induced neurodegeneration: prevented
Helpless (H) mice
  activity in the tail suspension test: active
Helpless (H) mice; acute administration
  antidepressant effect in helpless mice: potent antidepressant effect
mice
  marble-burying behavior: significantly reduce
C57Bl6/J mice
  immobility time in the FST: dose-dependently reduced
rat
  Antidepressant-like effects in rat forced swim test: Antidepressant-like effects

## Cn1ccc(COc2cc3c(cc2-c2ccc(F)cc2)C(=O)NC3)n1 [Compound 1, 6-(4-fluorophenyl)-5-((1-methyl-1H-pyrazol-3-yl)methoxy)isoindolin-1-one]
Human mGlu3
  Human mGlu3 GIRK IC50 (nM): Inactive
Human mGlu2
  IC50: 594 nM

## Cn1ccc(COc2cc3c(cc2-c2ccc(C#N)cc2)C(=O)NC3)n1 [Compound 14, 4-(6-((1-methyl-1H-pyrazol-3-yl)methoxy)-3-oxoisoindolin-5-yl)benzonitrile]
Human mGlu3
  Human mGlu3 GIRK IC50 (nM): Inactive
Human mGlu2
  IC50: 242 nM

## CCCCCCCOC(=O)[C@@]1(F)[C@@H]2C[C@@H](OCc3ccc(Cl)c(Cl)c3)[C@@](N)(C(=O)O)[C@@H]21 [BCI-838]
Group II mGlu receptors; three months of treatment, two AD mouse models
  levels of monomeric and oAβ peptides in the hippocampus and cortex: decreased
Group II mGlu receptors; three months of treatment
  Dutch APP transgene-associated learning and memory impairment: reversed
  anxiolytic effects: anxiolytic effects
Group II mGlu receptors; wild-type and Alzheimer's diseased mice, 3 months
  hippocampal progenitor cell proliferation: stimulated

## [2H]C([2H])([2H])Oc1ccc(-c2cc3c(cc2OCc2ccn(C)n2)CNC3=O)cc1 [Compound 24, 6-(4-(methoxy-d3)phenyl)-5-((1-methyl-1H-pyrazol-3-yl)methoxy)isoindolin-1-one]
Human mGlu3
  Human mGlu3 GIRK IC50 (nM): Inactive
Human mGlu2
  IC50: 99.5 nM

## COc1cccc(COc2cc3c(cc2-c2ccc(F)cc2)C(=O)NC3)c1 [Compound 7, 6-(4-fluorophenyl)-5-((3-methoxybenzyl)oxy)isoindolin-1-one]
Human mGlu3
  Human mGlu3 GIRK IC50 (nM): Inactive
Human mGlu2
  IC50: 8290 nM

## CC(C)n1ccc(COc2cc3c(cc2-c2ccc(F)cc2)C(=O)NC3)n1 [Compound 4, 6-(4-fluorophenyl)-5-((1-isopropyl-1H-pyrazol-3-yl)methoxy)isoindolin-1-one]
Human mGlu3
  Human mGlu3 GIRK IC50 (nM): Inactive
Human mGlu2
  IC50: 261 nM

## N[C@]1(C(=O)O)[C@H]2[C@@H](C[C@H]1OCc1ccc(Cl)c(Cl)c1)[C@]2(F)C(=O)O [BCI-632]
Group II mGlu receptors; active metabolite after once-daily oral dosing of prodrug BCI-838
  time for which brain concentration was sufficient to inhibit group II mGlu receptors: 22 h

## Cn1ccc(COc2cc3c(cc2-c2ccccc2F)C(=O)NC3)n1 [Compound 13, 6-(2-fluorophenyl)-5-((1-methyl-1H-pyrazol-3-yl)methoxy)isoindolin-1-one]
Human mGlu3
  Human mGlu3 GIRK IC50 (nM): Inactive
Human mGlu2
  IC50: 214 nM

## O=C1NCc2cc(OCc3ccn(C(F)F)n3)c(-c3ccc(F)cc3)cc21 [Compound 17, 5-((1-(difluoromethyl)-1H-pyrazol-3-yl)methoxy)-6-(4-fluorophenyl)isoindolin-1-one]
Human mGlu3
  Human mGlu3 GIRK IC50 (nM): Inactive
Human mGlu2
  IC50: 292 nM

## Cc1nc(COc2cc3c(cc2-c2ccccc2C#N)C(=O)NC3)cs1 [Compound 20, 2-(6-((2-methylthiazol-4-yl)methoxy)-3-oxoisoindolin-5-yl)benzonitrile]
Human mGlu3
  Human mGlu3 GIRK IC50 (nM): Inactive
Human mGlu2
  IC50: 189 nM

## CCS(=O)(=O)N(Cc1cccnc1)c1cccc(-c2ccc(C#N)cc2)c1 [LY566332]
[3]
  Aβ-induced neurodegeneration: amplified

## Cc1ocnc1COc1cc2c(cc1-c1ccc(F)cc1)C(=O)NC2 [Compound 9, 6-(4-fluorophenyl)-5-((5-methyloxazol-4-yl)methoxy)isoindolin-1-one]
Human mGlu3
  Human mGlu3 GIRK IC50 (nM): Inactive
Human mGlu2
  IC50: 150 nM

## Cc1csc(COc2cc3c(cc2-c2ccc(F)cc2)C(=O)NC3)n1 [Compound 3, 6-(4-fluorophenyl)-5-((4-methylthiazol-2-yl)methoxy)isoindolin-1-one]
Human mGlu3
  Human mGlu3 GIRK IC50 (nM): Inactive
Human mGlu2
  IC50: 418 nM

## COc1ccc(-c2cc3c(cc2OCc2ccn(C)n2)CNC3=O)cc1 [Compound 12, 6-(4-methoxyphenyl)-5-((1-methyl-1H-pyrazol-3-yl)methoxy)isoindolin-1-one]
Human mGlu3
  Human mGlu3 GIRK IC50 (nM): Inactive
Human mGlu2
  IC50: 170 nM

## COc1ccc(-c2cc3c(cc2OCc2ccn(C)n2)CNC3=O)c(F)c1 [Compound 11, 6-(2-fluoro-4-methoxyphenyl)-5-((1-methyl-1H-pyrazol-3-yl)methoxy)isoindolin-1-one]
Human mGlu3
  Human mGlu3 GIRK IC50 (nM): Inactive
Human mGlu2
  IC50: 131 nM

## Cc1cc(-c2cccc(C3=Nc4cc(C)c(C(F)(F)F)cc4NC(=O)C3)c2)cc(C)n1 [RO4491533]
[2]
  hypolocomotor effect of mGlu2/3 agonist (LY379268): reversed
Helpless (H) mice
  activity in the tail suspension test: active
C57Bl6/J mice
  immobility time in the FST: dose-dependently reduced

## Cc1nc(COc2cc3c(cc2-c2ccccc2F)C(=O)NC3)cs1 [Compound 16, 6-(2-fluorophenyl)-5-((2-methylthiazol-4-yl)methoxy)isoindolin-1-one]
Human mGlu3
  Human mGlu3 GIRK IC50 (nM): Inactive
Human mGlu2
  IC50: 357 nM

## Cc1ncc(COc2cc3c(cc2-c2ccc(F)cc2)C(=O)NC3)s1 [Compound 2, 6-(4-fluorophenyl)-5-((2-methylthiazol-5-yl)methoxy)isoindolin-1-one]
Human mGlu3
  Human mGlu3 GIRK IC50 (nM): Inactive
Human mGlu2
  IC50: 380 nM

## O=C1NCc2cc(OCc3cc4n(n3)CCCO4)c(-c3ccc(F)cc3)cc21 [Compound 10, 5-((6,7-dihydro-5H-pyrazolo[5,1-b][1,3]oxazin-2-yl)methoxy)-6-(4-fluorophenyl)isoindolin-1-one]
Human mGlu3
  Human mGlu3 GIRK IC50 (nM): Inactive
Human mGlu2
  IC50: 423 nM
